From article PMC9848259 (Journal of Enzyme Inhibition and Medicinal Chemistry, 2023)
Like-named read-outs stand apart in the source and are kept apart here.

Columns and labels:
[1] = target: T1, ACHE and BACE-1A (Homo sapiens, UniProt P22303+P56817); test: Yeast three-hybrid (Y3H) assay with β-galactosidase readout; format: cell-based, Saccharomyces cerevisiae; conditions: 10 µM ligand
T1 construct: the prepared pGBKT7-hACHE plasmid contained the cDNA fragment encoding for aa 52–577; obtained from the extracellular, N-terminal domain (aa 46–457) of BACE1A (GenBank: AF204943.1); host or cells: Saccharomyces cerevisiae Y2HGold (bait) mated with Y187 (prey)
Procedure: The Y3H method was used to analyse the possible hybrid-ligand induced interactions between five selected proteins. […]. Yeast codon optimisation was performed to facilitate high expression of human recombinant proteins in Saccharomyces cerevisae. The fragments for the signal peptide (aa 1–51) and domain responsible for protein tetramerization (aa 578–611) were obtained from the cDNA encoding for human ACHE (GenBank M55040.1). Therefore, the prepared pGBKT7-hACHE plasmid contained the cDNA fragment encoding for aa 52–577. […]
The yeast ẞ-galactosidase microplate assay protocol (stopped) was used to evaluate the ẞ-galactosidase activity in the yeast culture according to the manufacturer’s instructions. […] Optical density was measured at 660 nm and absorbance at 420 nm by a Synergy H1 spectrophotometer (Biotek). In the quantitative ẞ-galactosidase assay, the hybrid ligand 3e was used. […]

[2] = LogP assay (RP-HPLC); format: physicochemical; conditions: pH 11 mobile phases, read-out: logP Experimental
Procedure: Methanol (POCH) was used as an organic modifier. Demineralised water was purified in our faculty. The methanol and water solution were set at pH 11 using 30 mM Triethylamine (TEA) (Sigma Aldrich). Ten isocratic mobile phases were used in the calibration and assay. The first mobile phase contained 50% methanol solution with 30 mM TEA and 50% water solution with 30 mM TEA. Each subsequent mobile phase contained 5% more methanol solution: the final mobile phase consisted of […] solution mix. The method required uncharged substances to be used during analysis.
These substances were selected on the basis of their structural similarity to the test compounds. The stock solutions contained about 1 mg/ml of calibration compounds or test compounds. The injection concentration was 100 µg/ml, and the injection volume was 7 µl.
A Waters 600 HPLC system was used with a photodiode array detector (PDA). The detector was set at the respective optimum absorption wavelength for each compound. The system used an Xbridge C18 50 mm × 4.6 mm i.d., 3.5 µm, chromatographic column (Waters). Data acquisition and processing were performed on Waters Millennium software.
The assay was performed according to Chao Liang et al. with modification. […]
Test compound was eluted by all mobile phases. […] The logP value was read from the calibration curve. […]

[3] = pKa assay (spectrophotometric); format: physicochemical; conditions: potassium phosphate buffer series with methanol, 23 °C
Procedure: Potassium dihydrogen phosphate, potassium hydroxide and methanol (POCH) were used to prepare the buffer solution, as described previously. […]. The pH was measured in 23 °C by using a Mettler Toledo FiveEasy pH metre with a LE438 Lab pH electrode (Mettler Toledo). Our tested compound solution was 5 µM solution in methanol: water (1:1) mix.
Spectrophotometric measurement was performed in a 96-well plate using a Synergy H1 microplate reader (BioTek) with Gen5 software (BioTek). The full assay consisted of 35 UV spectrum measurements, one for each work buffer solution. For the assay, 180 μL sequent work buffer and 20 μL tested compound solution were added to each of 35 wells. For the blank, 200 μL sequent work buffer alone was added to each of 35 wells. The measurement was performed at 23 °C. The spectra were recorded from 280 nm to 380 nm in 1 nm steps. Concentrations were calculated based on the 332/343 nm and 343/332 nm ratio as described previously. The results were compared with computer calculations of pKa value obtained using chemicalize.com online software (ChemAxon 2018) and ACD/Percepta version 14.0.0 (Advanced Chemistry Development, Inc., Metropolitan Toronto, Canada).

T1 sequence (P22303 52-577): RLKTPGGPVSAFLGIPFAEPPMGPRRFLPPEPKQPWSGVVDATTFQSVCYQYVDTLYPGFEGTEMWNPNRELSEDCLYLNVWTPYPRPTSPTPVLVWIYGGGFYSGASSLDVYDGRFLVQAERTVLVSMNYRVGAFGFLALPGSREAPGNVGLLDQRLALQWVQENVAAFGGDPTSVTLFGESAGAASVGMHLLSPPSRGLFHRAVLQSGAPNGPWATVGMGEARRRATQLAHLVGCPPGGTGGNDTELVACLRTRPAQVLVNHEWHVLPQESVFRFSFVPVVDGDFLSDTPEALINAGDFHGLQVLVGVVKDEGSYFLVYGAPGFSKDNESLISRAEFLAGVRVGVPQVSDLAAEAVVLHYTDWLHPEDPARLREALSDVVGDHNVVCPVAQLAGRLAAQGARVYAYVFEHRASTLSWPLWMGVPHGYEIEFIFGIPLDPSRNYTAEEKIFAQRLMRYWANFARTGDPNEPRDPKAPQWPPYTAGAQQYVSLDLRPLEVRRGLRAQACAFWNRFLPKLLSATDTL
T1 sequence (P56817 46-457): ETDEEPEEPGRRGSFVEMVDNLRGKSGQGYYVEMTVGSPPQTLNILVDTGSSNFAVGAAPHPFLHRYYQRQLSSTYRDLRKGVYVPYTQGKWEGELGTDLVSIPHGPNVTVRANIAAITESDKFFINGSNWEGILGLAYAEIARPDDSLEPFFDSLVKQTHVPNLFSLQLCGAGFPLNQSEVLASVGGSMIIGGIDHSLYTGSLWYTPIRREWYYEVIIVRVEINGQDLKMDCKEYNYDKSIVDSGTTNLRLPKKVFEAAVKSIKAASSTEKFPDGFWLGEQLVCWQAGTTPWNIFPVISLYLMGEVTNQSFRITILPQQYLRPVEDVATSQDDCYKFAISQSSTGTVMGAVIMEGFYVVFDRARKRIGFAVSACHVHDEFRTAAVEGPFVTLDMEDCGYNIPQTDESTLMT

O=C(NCCCCCCNc1c2c(nc3ccccc13)CCC2)c1cc(Cl)cc(Cl)c1 [Compound 3e]
β-galactosidase activity (strength of interaction) ([1]; 96 h, triplicate): 206.37 ± 4.85 units | hybrid ligand-mediated interaction of ACHE-BACE-1A protein pair (blue colonies) ([1]; DDO and QDO/X/A plates): yielded blue colonies | chromatographic logP [2]: 5.44 | pKa ([3]; read-out: pKa1 Experimental): 8.4 | pKa ([3]; read-out: pKa2 Experimental): 11.3
